Source: ChEMBL document CHEMBL1140427, “Semi-rational design of (north)-methanocarba nucleosides as dual acting A(1) and A(3) adenosine receptor agonists: novel prototypes for cardioprotection” (J Med Chem, 2005)

What was measured:
Adenosine receptor A1 [1] = target: T1, Adenosine receptor A1 (Homo sapiens, UniProt P30542); experiment: Displacement of [3H]R-PIA or [3H]CGS 21680 from human adenosine A1 receptor in CHO cells; assay type: cell-based
T1 sequence (P30542 whole entry): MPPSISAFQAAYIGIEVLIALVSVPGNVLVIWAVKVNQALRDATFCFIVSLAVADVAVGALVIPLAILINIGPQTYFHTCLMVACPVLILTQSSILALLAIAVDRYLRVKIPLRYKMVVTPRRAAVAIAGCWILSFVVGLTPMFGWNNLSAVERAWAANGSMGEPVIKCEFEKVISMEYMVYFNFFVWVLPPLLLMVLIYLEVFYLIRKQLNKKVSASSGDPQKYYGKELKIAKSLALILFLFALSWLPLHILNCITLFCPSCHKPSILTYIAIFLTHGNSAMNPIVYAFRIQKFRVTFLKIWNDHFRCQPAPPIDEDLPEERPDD

Adenosine receptor A2a = Adenosine receptor A2a (Homo sapiens, UniProt P29274); experiment: Displacement of [3H]R-PIA or [3H]CGS 21680 from human adenosine A2A receptor in CHO cells; assay type: cell-based
Adenosine receptor A2a, sequence (P29274 whole entry): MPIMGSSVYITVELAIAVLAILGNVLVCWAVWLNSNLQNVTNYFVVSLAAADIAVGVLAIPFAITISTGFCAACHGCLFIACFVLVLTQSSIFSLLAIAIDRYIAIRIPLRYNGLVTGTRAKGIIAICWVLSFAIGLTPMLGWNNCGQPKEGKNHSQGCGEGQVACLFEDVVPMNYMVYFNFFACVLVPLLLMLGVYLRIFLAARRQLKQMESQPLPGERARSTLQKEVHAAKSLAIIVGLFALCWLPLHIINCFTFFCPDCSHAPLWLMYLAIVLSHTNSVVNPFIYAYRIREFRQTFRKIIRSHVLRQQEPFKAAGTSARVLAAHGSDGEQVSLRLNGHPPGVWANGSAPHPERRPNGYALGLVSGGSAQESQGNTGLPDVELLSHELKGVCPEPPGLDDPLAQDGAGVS

Adenosine receptor A3 [2] = target: T2, Adenosine receptor A3 (Homo sapiens, UniProt P0DMS8); experiment: Binding affinity to human adenosine A3 receptor in CHO cells
T2 sequence (P0DMS8 whole entry): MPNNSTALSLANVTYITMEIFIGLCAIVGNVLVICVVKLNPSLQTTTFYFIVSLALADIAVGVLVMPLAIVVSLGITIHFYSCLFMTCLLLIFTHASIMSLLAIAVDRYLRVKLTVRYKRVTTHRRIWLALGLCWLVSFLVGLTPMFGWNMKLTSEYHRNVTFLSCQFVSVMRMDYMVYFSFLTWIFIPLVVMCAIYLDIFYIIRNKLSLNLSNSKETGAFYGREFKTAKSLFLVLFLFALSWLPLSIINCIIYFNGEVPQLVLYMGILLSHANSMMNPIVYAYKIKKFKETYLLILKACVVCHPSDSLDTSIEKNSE

Adenosine receptor A1 [3] = target: T3, Adenosine receptor A1 (Rattus norvegicus, UniProt P25099); experiment: Binding affinity to rat adenosine A1 receptor in CHO cells
T3 sequence (P25099 whole entry): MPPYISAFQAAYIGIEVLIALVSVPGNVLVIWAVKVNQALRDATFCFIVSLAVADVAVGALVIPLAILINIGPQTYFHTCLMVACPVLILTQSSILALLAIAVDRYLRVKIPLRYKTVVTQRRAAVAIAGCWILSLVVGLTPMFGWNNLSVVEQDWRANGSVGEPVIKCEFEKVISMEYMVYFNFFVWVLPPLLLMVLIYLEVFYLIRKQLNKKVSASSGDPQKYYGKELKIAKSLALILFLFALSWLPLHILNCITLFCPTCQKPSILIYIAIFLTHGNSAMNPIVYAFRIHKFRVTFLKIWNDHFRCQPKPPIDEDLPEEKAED

[4] = target: T4, Adenosine receptor A3 (Homo sapiens) (UniProt P0DMS8); experiment: Maximal agonist effect at human adenosine A3 receptor in CHO cells at 10 uM by the inhibition of forskolin-stimulated cAMP production; assay type: functional, cell-based; parameters: scale not given: the % may be the effect or the level left
T4 sequence (whole entry): T2 sequence (P0DMS8 whole entry)

Adenosine receptor A1 [5] = target: T1, Adenosine receptor A1; experiment: Agonistic effect at human adenosine A1 receptor in CHO cells; assay type: functional, cell-based
Adenosine receptor A3 [6] = target: T2, Adenosine receptor A3; experiment: Agonistic effect at human adenosine A3 receptor in CHO cells; assay type: functional, cell-based
Adenosine receptor A2b = target: T5, Adenosine receptor A2b (Homo sapiens, UniProt P29275); experiment: Agonistic effect at human adenosine A2B receptor in CHO cells; assay type: functional, cell-based
T5 sequence (P29275 whole entry): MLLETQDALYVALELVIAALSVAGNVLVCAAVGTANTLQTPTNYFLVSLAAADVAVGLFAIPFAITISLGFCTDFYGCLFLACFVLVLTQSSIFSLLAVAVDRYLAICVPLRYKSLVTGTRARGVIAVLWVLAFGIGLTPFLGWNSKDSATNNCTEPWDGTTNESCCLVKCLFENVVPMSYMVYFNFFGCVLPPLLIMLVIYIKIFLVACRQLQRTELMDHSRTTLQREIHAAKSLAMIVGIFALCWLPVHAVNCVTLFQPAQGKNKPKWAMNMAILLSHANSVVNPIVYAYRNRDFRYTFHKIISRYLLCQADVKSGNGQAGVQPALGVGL

Adenosine receptor A3 [7] = target: T6, Adenosine receptor A3 (Rattus norvegicus, UniProt P28647); experiment: Binding affinity to rat adenosine A3 receptor in CHO cells; assay type: cell-based
T6 sequence (P28647 whole entry): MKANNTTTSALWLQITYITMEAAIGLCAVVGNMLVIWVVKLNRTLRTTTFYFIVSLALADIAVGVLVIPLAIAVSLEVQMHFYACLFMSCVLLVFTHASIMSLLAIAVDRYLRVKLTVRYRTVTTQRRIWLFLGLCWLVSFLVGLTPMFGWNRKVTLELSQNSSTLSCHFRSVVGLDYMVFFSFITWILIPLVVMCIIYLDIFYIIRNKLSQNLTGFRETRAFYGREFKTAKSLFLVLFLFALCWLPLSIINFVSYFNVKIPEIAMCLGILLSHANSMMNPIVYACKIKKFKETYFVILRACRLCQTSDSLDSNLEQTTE

Row | SMILES | Ki (Adenosine receptor A1 [1]) | Ki (Adenosine receptor A2a) | Ki (Adenosine receptor A3 [2]) | Ki (Adenosine receptor A1 [3]) | Activity [4] | EC50 (Adenosine receptor A1 [5]) | EC50 (Adenosine receptor A3 [6]) | EC50 (Adenosine receptor A2b) | Ki (Adenosine receptor A3 [7])
1 | CNC(=O)C12C[C@@H]1[C@@H](n1cnc3c(NC4CCCC4)nc(Cl)nc31)[C@H](O)[C@@H]2O (single isomer, unassigned) | 0.0183 µM | 3.25 µM | 0.0037 µM | 0.0174 µM | 101% | 0.0082 µM | 0.0028 µM | > 10 µM | 
2 | OC[C@H]1O[C@@H](n2cnc3c(NC4CCCC4)nc(Cl)nc32)[C@H](O)[C@@H]1O |  |  |  |  | 0% |  |  |  | 
3 | CNC(=O)C12C[C@@H]1[C@@H](n1cnc3c(NC4CCCC4)ncnc31)[C@H](O)[C@@H]2O (single isomer, unassigned) |  | 6.42 µM | 0.0131 µM |  | 93% |  |  | > 10 µM | 0.0102 µM
4 | OC[C@H]1O[C@@H](n2cnc3c(NC4C5CCC4CC5)ncnc32)[C@H](O)[C@@H]1O (stereo partly specified) |  |  | 0.112 µM |  | 112% |  |  |  | 0.229 µM
5 | CNC(=O)C12C[C@@H]1[C@@H](n1cnc3c(NC4C5CCC4CC5)nc(Cl)nc31)[C@H](O)[C@@H]2O (single isomer, unassigned) | 0.19 µM | > 10 µM | 0.0146 µM |  | 92% |  |  | > 10 µM | 0.0096 µM
6 | OC[C@H]1O[C@@H](n2cnc3c(NC4CCCC4)ncnc32)[C@H](O)[C@@H]1O [N6-CYCLOPENTYLADENOSINE] |  | 0.462 µM | 0.24 µM |  | 72% |  |  |  | 
